Activity calls are given as the source filed them. The rule behind the calls is not given here.
Legend:
[1] = biological target: Estrogen receptor alpha (Homo sapiens) (UniProt P03372); assay: Inhibition of estradiol-induced coactivator peptide SRC1 binding to estrogen receptor alpha expressed in human HEC1 cells at 20 uM after 24 hrs by beta-galactosidase based mammalian two-hybrid assay; design: scale not given: the % may be the effect or the level left; details: HEC-1
[2] = biological target: Estrogen receptor alpha (Homo sapiens) (UniProt P03372); assay: Antagonist activity at estrogen receptor alpha expressed in human HEC1 cells assessed as inhibition of estradiol-induced transcriptional activity at 20 uM after 24 hrs by beta-galactosidase reporter gene assay; design: scale not given: the % may be the effect or the level left; details: HEC-1
Estrogen receptor [3] = biological target: T1, Estrogen receptor (Homo sapiens, UniProt P03372); assay: Inhibition of estradiol-induced coactivator peptide SRC1 binding to estrogen receptor alpha expressed in human HEC1 cells after 24 hrs by luciferase based mammalian two-hybrid assay; assay type: cell-based, HEC-1
T1 sequence (P03372 whole entry): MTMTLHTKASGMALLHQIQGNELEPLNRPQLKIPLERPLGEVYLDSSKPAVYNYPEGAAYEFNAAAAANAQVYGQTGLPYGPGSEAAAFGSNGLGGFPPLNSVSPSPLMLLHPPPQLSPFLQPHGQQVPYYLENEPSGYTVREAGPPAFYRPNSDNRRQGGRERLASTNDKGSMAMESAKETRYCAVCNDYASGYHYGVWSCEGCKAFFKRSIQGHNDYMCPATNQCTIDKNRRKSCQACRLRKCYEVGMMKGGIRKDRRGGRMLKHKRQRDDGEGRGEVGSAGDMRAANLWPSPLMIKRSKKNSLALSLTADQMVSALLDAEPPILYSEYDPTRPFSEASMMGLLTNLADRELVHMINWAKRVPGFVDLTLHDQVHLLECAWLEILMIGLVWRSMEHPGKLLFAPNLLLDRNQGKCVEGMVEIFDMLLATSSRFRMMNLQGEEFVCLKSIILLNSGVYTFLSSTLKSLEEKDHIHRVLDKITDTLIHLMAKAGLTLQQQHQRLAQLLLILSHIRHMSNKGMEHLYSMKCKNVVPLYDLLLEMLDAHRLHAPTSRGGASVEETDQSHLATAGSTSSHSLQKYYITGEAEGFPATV

Estrogen receptor [4] = biological target: T1, Estrogen receptor; assay: Inhibition of estradiol-induced coactivator peptide SRC binding to recombinant estrogen receptor by fluorescence polarization assay
[5] = biological target: Estrogen receptor alpha (Homo sapiens) (UniProt P03372); assay: Covalent binding affinity to estrogen receptor alpha assessed as change in molecular weight after 30 mins by electrospray ionization mass spectrometry

Row | SMILES | Activity [1] | Activity [2] | IC50 (Estrogen receptor [3]) | IC50 (Estrogen receptor [4]) | Activity [5]
1 | N=C(N)N/N=C/C=C(\Cl)c1ccccc1 | 50% | 50% | 4.6 µM |  | 
2 | COC1=C(/C=N/NC(=N)N)CCc2ccccc21 | 50% | 50% | ≥ 50 µM |  | 
3 | Cc1cc(C)c2c(c1)C(Cl)=C(/C=N/NC(=N)N)CC2 | 50% | 50% | 2.5 µM |  | 
4 | C/C(=N\NC(=N)N)C1=C(Cl)c2ccccc2CC1 | 50% | 50% |  |  | 
5 | CC(/C=N/NC(=N)N)=C(/Cl)c1ccccc1 | 50% | 50% | 2.6 µM | 37 µM | 
6 | N=C(N)N/N=C/c1ccc2ccccc2c1 | 50% | 50% | 11.3 µM |  | 
7 | N=C(N)N/N=C/C1=C(Br)c2ccccc2CC1 | 50% | 50% | 4.9 µM |  | 
8 | N=C(N)N/N=C/C1=C(Cl)c2ccccc2CC1 | 50% | 50% | 3.6 µM | 11 µM | inactive
9 | N=C(N)N/N=C/c1cccc2ccccc12 | 50% | 50% | 11.5 µM |  | 
10 | CC1CC(/C=N/NC(=N)N)=C(Cl)c2ccccc21 (stereo not given) | 50% | 50% | 9.4 µM |  | 

The next lines start with results.

Row | Activity [1] | Activity [2] | IC50 (Estrogen receptor [3]) | IC50 (Estrogen receptor [4]) | SMILES | Activity [5]
11 | 50% | 50% | 6.8 µM |  | N=C(N)N/N=C/C1=C(Cl)c2ccccc2C1 | 
12 | 50% | 50% | 2.1 µM |  | COc1ccc2c(c1)CCC(/C=N/NC(=N)N)=C2Cl | 
13 | 50% | 50% | ≥ 50 µM |  | N=C(N)N/N=C/C=C(\Cl)c1cccc2ccccc12 | 
14 | 50% | 50% | 5.9 µM |  | N=C(N)N/N=C/C1=C(Oc2ccccc2)c2ccccc2CC1 | 
15 | 50% | 50% |  |  | N=C(N)N/N=C/C1=C(C(F)(F)F)c2ccccc2CC1 | 
16 | 50% | 50% | 4 µM | 16 µM | N=C(N)N/N=C/C1=C(Cl)c2ccccc2CCC1 | 

Source: ChEMBL document CHEMBL1151699, “Synthesis and biological evaluation of guanylhydrazone coactivator binding inhibitors for the estrogen receptor” (Bioorg Med Chem, 2008)
